# From patent US6342501B1, “Pyrrolo[2,3-d] pyrimidines as antiviral agents” (The Regents of the University of Michigan, priority 1994, dated 2002)
# Read-outs that look alike come from different tables or passages of the source.
# Columns and labels:
# [1] = system: human cytomegalovirus (HCMV); assay: microbe, parasite or virus in culture; type: cell-based, Towne strain; conditions: for IC50: Human betaherpesvirus 5, HFF, read-out: HCMV; for antiviral activity against HCMV (in words): comment on Table 1 data
# Method: (§1) The routine growth and passage of KB and BSC-1 cells was performed in monolayer cultures using minimal essential medium (MEM) with either Hanks salts [MEM(H)] or Earle salts [MEM(E)] supplemented with 10% calf serum. The sodium bicarbonate concentration was varied to meet the buffering capacity required. Cultures of diploid human foreskin fibroblast (HFF) or MRC-5 cells were grown in medium consisting of MEM(E) with 10% fetal bovine serum. Cells were passaged at 1:2 to 1:10 dilutions according to conventional procedures by using 0.05% trypsin plus 0.02% EDTA in a HEPES buffered salt solution (HBS) [Shipman, C., Jr., Proc. Soc. […] HFF and MRC-5 cells were passaged only at 1:2 dilutions. The Towne strain, plaque-purified isolate Po, of HCMV was kindly provided by Dr. Mark Stinski, University of Iowa. The KOS strain of HSV-1 was used in most experiments and was provided by Dr. Sandra K. Weller, University of Conn.
# Stock HCMV was prepared by infecting HFF cells at a multiplicity of infection (m.o.i.) of <0.01 plaque-forming units (p.f.u.) per cell. Cell growth medium was changed every four days until cytopathology was evident in all cells (approximately 21 days). Supernatant fluids were retained as the virus stock.
# Virus titers were determined using monolayer cultures of HFF cells for HCMV and monolayer cultures of BSC-1 cells for HSV-1 as described earlier [Prichard, M. N., et al., J. Virol. […] Briefly, HFF or BSC-1 cells were planted as described above in 96-well cluster dishes and incubated overnight at 37. degree. C. in a humidified 3% C02 -97% air atmosphere. The next day cultures were inoculated with HCMV or HSV-1 and serially diluted 1:3 across the remaining eleven columns of the 96-well plate. Cultures were incubated at 37. degree. C. for 2 hr to permit virus adsorption and then virus inoculum was replaced with 0.2 ml of fresh medium. Cultures were incubated for seven days for HCMV, two or three days for HSV-1, the medium was removed, and the cell sheets were stained with 0.1% crystal violet in 20% methanol.
# HFF cells in 24-well cluster dishes were infected with approximately 100 p.f.u. of HCMV per cm^2 cell sheet using the procedures detailed above. Following virus adsorption, compounds dissolved in growth medium were added to duplicate wells in four to eight selected concentrations. After incubation at 37° C. for 7 to 10 days, cell sheets were fixed, stained with crystal violet and microscopic plaques enumerated as described above.
# After virus adsorption, inoculum was replaced with 0.2 mL of fresh medium containing test compounds. The first row of 12 wells was left undisturbed and served as virus controls. Each well in the second row received an additional 0.1 mL of medium with test compound at three times the desired final concentration. The contents of the 12 wells were mixed by repeated pipetting and then serially diluted 1:3 along the remaining wells. In this manner, six compounds could be tested in duplicate on a single plate with concentrations from […]. Plates were incubated at 37° C. for seven days, subjected to one cycle of freezing and thawing; aliquots from each of the eight wells of a given column were transferred to the first column of a fresh 96-well monolayer culture of HFF cells. Contents were mixed and serially diluted 1:3 across the remaining eleven columns of the secondary plate. Each column of the original primary plate was diluted across a separate plate in this manner. Cultures were incubated, plaques were enumerated, and titers calculated as described above.
# (§2) Dose-response relationships were constructed by linearly regressing the percent inhibition of parameters derived in the preceding sections against logarithm 10 drug concentrations. […] Samples containing positive controls (acyclovir for HSV-1 and ganciclovir for HCMV) were used in all assays.
# [2] = system: herpes simplex virus type 1 (HSV-1); assay: HSV-1 ELISA in BSC-1 cells; type: cell-based, KOS strain; conditions: read-out: HSV-1
# Method: as §1
# High titer HSV-1 stocks were prepared by infecting BSC cells at an m.o.i. of <0.1 as detailed previously [Turk, S. R., et al., Antimicrob.
# Ninety-six-well cluster dishes were planted with 10,000 BSC-1 cells per well in 200 μL per well of MEM(E) plus 10% calf serum. After overnight incubation at 37° C., selected drug concentrations in quadruplicate and HSV-1 at a concentration of 100 p.f.u./well were added. Following a 3-day incubation at 37° C., medium was removed, plates were blocked, rinsed, and horse radish peroxidase conjugated rabbit anti-HSV-1 antibody was added. Following removal of the antibody containing solution, plates were rinsed, and then developed by adding 150 μL per well of a solution of tetramethylbenzidine as substrate. The reaction was stopped with H2SO4 and absorbance was read at 450 and 570 nm. Drug effects were calculated as a percentage of the reduction in absorbance in the presence of each drug concentration compared to absorbance obtained with virus in the absence of drug.
# as §2
# [3] = system: human foreskin fibroblasts (HFF cells); assay: Cytotoxicity in stationary HFF cells (microscopic inspection of plaque assay cells); type: cell-based; conditions: read-out: HFF
# Method: (§3) Two different assays were used to explore cytotoxicity of selected compounds: (i) Cytotoxicity produced in stationary HFF cells was determined by microscopic inspection of cells used in plaque assays which were not affected by the virus [Turk, S. R., et al, Antimicrob.
# as §2
# [4] = system: KB cells; assay: Cytotoxicity: KB cell growth (crystal violet staining); type: cell-based; conditions: Homo sapiens, read-out: KBgrv
# Method: as §3
# Briefly, 96-well cluster dishes were planted with KB cells at 3000-5000 cells per well. After overnight incubation at 37° C., test compound was added in quadruplicate at six to eight concentrations. Plates were incubated at 37° C for 48 hours in a CO2 incubator, rinsed, fixed with 95% ethanol, and stained with 0.1% crystal violet. Acidified ethanol was added and plates read at 570 nm in a spectrophotometer designed to read 96-well ELISA assay plates.
# as §2
# [5] = Human alphaherpesvirus 1, 72 h, Table 1, fifty-percent inhibitory concentration, ELISA, BSC-1 cells, 3-day incubation
# [6] = Table 1, cytotoxicity, stationary HFF cells, visual
# [7] = Table 1, cytotoxicity, KB cell growth, 48 hours
# [8] = Human alphaherpesvirus 1, BSC-1, 72 h
SMILES,IC50 [1],"IC50 [2, 5]","IC50 [3, 6]","IC50 [4, 7]","IC50 [2, 8]",IC50 ([3]; HFF),"IC50 ([4]; KB, 48 h)",antiviral activity against HCMV (in words) [1]
"N#Cc1cn(CC=Cc2ccccc2)c2ncnc(N)c12 [Compound 1372, 4-amino-7-(3-phenyl)prop-2-enyl-pyrrolo[2,3-d]pyrimidine-5-carbonitrile]",> 10 µM,> 100 µM,> 10 µM,> 100 µM,–,–,–,–
"NC(=O)c1cn(CCc2ccccc2)c2ncnc(N)c12 [Compound 1396, 4-amino-7-(2-phenyl)ethyl-pyrrolo[2,3-d]pyrimidine-5-carboxamide]",17 µM,45 µM,> 100 µM,40 µM,–,–,–,–
"Cc1ccccc1Cn1cc(C(N)=O)c2c(N)ncnc21 [Compound 636, 4-amino-7-(2-methylbenzyl)-pyrrolo[2,3-d]pyrimidine-5-carboxamide]",14.5 µM,–,–,–,> 100 µM,100 µM,≥ 222 µM,–
"NC(=S)c1cn(CCc2ccccc2)c2ncnc(N)c12 [Compound 1446, 4-amino-7-(2-phenyl)ethyl-pyrrolo[2,3-d]pyrimidine-5-thiocarboxamide]",> 1 µM,0.65 µM,100 µM,10 µM,–,–,–,excellent activity
"N#Cc1c(Br)n(CCc2ccccc2)c2ncnc(N)c12 [Compound 1351, 4-amino-6-bromo-7-(2-phenyl)ethyl-pyrrolo[2,3-d]pyrimidine-5-carbonitrile]",1 µM,≥ 222 µM,> 100 µM,> 100 µM,–,–,–,excellent activity
"Cc1ccc(Cn2cc(C(N)=O)c3c(N)ncnc32)cc1 [Compound 658, 4-amino-7-(4-methylbenzyl)-pyrrolo [2,3-d]pyrimidine-5-carboxamide]",181 µM,–,–,–,> 100 µM,141 µM,≥ 222 µM,–
"N#Cc1c(N)n(Cc2ccc(Br)cc2)c2ncnc(N)c12 [Compound 1389, 4,6-diamino-7-(4-bromobenzyl)-pyrrolo[2,3-d]pyrimidine-5-carbonitrile]",0.2 µM,> 100 µM,> 10 µM,15 µM,–,–,–,good to excellent antiviral activity
"N#Cc1c(Br)n(CC=Cc2ccccc2)c2ncnc(N)c12 [Compound 1361, 4-amino-6-bromo-7-(3-phenyl)prop-2-enyl-pyrrolo[2,3-d]pyrimidine-5-carbonitrile]",> 100 µM,> 100 µM,> 100 µM,> 100 µM,–,–,–,–
"CC(c1ccccc1)n1cc(C#N)c2c(N)ncnc21 (stereo not shown) [Compound 1414, 4-amino-7-((2-phenyl)eth-2-yl)-pyrrolo[2,3-d]pyrimidine-5-carbonitrile]",17 µM,45 µM,> 120 µM,20 µM,–,–,–,–
"N#Cc1c(Br)n(Cc2ccc(Cl)cc2)c2ncnc(N)c12 [Compound 1388, 4-amino-6-bromo-7-(4-chlorobenzyl)-pyrrolo[2,3-d]pyrimidine-5-carbonitrile]",116 µM,> 100 µM,116 µM,> 100 µM,–,–,–,–
"COc1ccc(Cn2cc(C(N)=O)c3c(N)ncnc32)cc1 [Compound 839, 4-amino-7-(4-methoxybenzyl)-pyrrolo[2,3-d]pyrimidine-5-carboxamide]",13 µM,–,–,–,35 µM,127 µM,47 µM,good to excellent antiviral activity
"N#Cc1c(N)n(Cc2ccc(F)cc2)c2ncnc(N)c12 [Compound 1365, 4,6-diamino-7-(4-flourobenzyl)-pyrrolo[2,3-d]pyrimidine-5-carbonitrile]",0.3 µM,33 µM,> 100 µM,60 µM,–,–,–,good to excellent antiviral activity
"N#Cc1c(N)n(CC=Cc2ccccc2)c2ncnc(N)c12 [Compound 1329, 4,6-diamino-7-(3-phenyl)prop-2-enyl-pyrrolo[2,3-d]pyrimidine-5-carbonitrile]",19 µM,40 µM,46 µM,33 µM,–,–,–,–
"N#Cc1cn(Cc2ccc(F)cc2)c2ncnc(N)c12 [Compound 1429, 4-amino-7-(4-fluorobenzyl)-pyrrolo[2,3-d]pyrimidine-5-carbonitrile]",1.8 µM,33 µM,> 100 µM,60 µM,–,–,–,good to excellent antiviral activity
"N#Cc1cn(Cc2ccc([N+](=O)[O-])cc2)c2ncnc(N)c12 [Compound 1360, 4-amino-7-(4-nitrobenzyl)-pyrrolo[2,3-d]pyrimidine-5-carbonitrile]",1.6 µM,> 100 µM,> 10 µM,> 100 µM,–,–,–,good to excellent antiviral activity
"CC(c1ccccc1)n1c(Br)c(C#N)c2c(N)ncnc21 (stereo not shown) [Compound 1363, 4-amino-6-bromo-7-((2-phenyl)eth-2-yl)-pyrrolo[2,3-d]pyrimidine-5-carbonitrile]",2.7 µM,90 µM,> 100 µM,50 µM,–,–,–,good to excellent antiviral activity
"N#Cc1c(N)n(CCc2ccccc2)c2ncnc(N)c12 [Compound 1369, 4,6-diamino-7-(2-phenyl)ethyl-pyrrolo[2,3-d]pyrimidine-5-carbonitrile]",< 0.1 µM,0.3 µM,100 µM,82 µM,–,–,–,excellent activity
"N#Cc1c(Br)n(Cc2ccc(Br)cc2)c2ncnc(N)c12 [Compound 1373, 4-amino-6-bromo-7-(4-bromobenzyl)-pyrrolo[2,3-d]pyrimidine-5-carbonitrile]",10.5 µM,> 100 µM,10.5 µM,> 100 µM,–,–,–,–
"Cc1ccc(Cn2c(Br)c(C(N)=O)c3c(N)ncnc32)cc1 [Compound 1427, 4-amino-6-bromo-7-(4-methylbenzyl)-pyrrolo[2,3-d]pyrimidine-5-carboxamide]",> 10 µM,–,–,–,> 100 µM,> 10 µM,> 100 µM,–
